In US20260356860A1, “2-SUBSTITUTED 3,4A,5,7,8,8A-HEXAHYDRO-4H-THIOPYRANO[4,3-DJPYRIMIDIN-4-ONES FOR WOUND TREATMENT” (priority 2022, published 2026):

Tests used:
[1] = biological target: T1, Tankyrase 2 (TNKS2) (Homo sapiens, UniProt Q9H2K2); assay: TNK2 Binding Assay (Tankyrase 2 ribosylation, chemiluminescence); type: biochemical
T1 sequence (Q9H2K2 1-1166): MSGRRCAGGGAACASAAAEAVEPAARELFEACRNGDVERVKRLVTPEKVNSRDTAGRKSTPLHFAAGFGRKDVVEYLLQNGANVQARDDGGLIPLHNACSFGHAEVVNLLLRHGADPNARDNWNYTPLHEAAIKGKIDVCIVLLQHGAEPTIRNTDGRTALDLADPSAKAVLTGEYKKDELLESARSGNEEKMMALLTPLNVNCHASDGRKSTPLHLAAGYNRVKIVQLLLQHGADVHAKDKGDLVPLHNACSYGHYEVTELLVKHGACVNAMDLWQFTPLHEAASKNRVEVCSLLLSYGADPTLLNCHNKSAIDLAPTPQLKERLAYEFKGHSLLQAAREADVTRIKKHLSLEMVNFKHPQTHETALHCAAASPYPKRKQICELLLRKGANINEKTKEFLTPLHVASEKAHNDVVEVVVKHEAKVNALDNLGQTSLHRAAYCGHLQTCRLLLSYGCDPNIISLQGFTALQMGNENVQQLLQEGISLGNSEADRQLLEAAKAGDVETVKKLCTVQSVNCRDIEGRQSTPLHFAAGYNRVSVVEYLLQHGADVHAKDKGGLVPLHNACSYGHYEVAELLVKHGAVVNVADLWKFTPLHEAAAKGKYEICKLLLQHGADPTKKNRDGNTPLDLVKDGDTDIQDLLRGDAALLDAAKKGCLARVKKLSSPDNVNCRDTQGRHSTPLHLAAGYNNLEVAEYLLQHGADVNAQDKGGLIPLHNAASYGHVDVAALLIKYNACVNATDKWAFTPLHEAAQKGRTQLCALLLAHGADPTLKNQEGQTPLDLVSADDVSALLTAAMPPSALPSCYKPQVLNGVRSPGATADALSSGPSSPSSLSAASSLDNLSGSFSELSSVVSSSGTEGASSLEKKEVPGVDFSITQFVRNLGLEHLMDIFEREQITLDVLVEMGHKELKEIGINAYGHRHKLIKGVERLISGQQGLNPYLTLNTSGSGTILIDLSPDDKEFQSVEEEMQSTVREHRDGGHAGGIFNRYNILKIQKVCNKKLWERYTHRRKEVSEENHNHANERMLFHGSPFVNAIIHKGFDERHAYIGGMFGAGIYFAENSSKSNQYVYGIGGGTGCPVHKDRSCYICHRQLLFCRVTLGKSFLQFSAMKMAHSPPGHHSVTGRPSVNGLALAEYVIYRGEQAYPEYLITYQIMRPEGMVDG
Method: Tankyrase 2 assay (n=3) was performed with the following steps: step 1, coating a 96-well plate with 50 μL/well of histone solution; step 2, conducting ribosylation reaction; and step 3, detection.
Step 1: Coating a 96-Well Plate with 50 μL/Well of Histone Solution.
A 5× histone mixture was diluted 1:5 with PBS to make a 1× histone in PBS mixture. 50 μL of the histone mixture was added to each well and incubated at 4° C. overnight. The plate was washed three times using 200 μL PBST buffer (1×PBS containing 0.05% Tween*20 (polysorbate 20) per well. The plate was tapped onto a clean paper towel to remove the liquid. The wells were blocked by adding 200 μL of blocking buffer 3 to each well. The plate was incubated at room temperature for at least 90 minutes. The plate was washed three times with 200 μL PBST buffer. The plate was tapped onto a clean paper towel to remove the liquid.
A fresh solution of 10 mM DTT in water was prepared.
A master mix was prepared and delivered to each well (25 μL/well). Master mix delivered to each well: (2.5 μL of 10×PARP assay buffer (purchased from BPS Bioscience)+2.5 μL of PARP substrate mixture 2+17.5 μL of water+2.5 μL of 10 mM fresh DTT). The concentration of DTT in the master mix was 1 mM. 25 μL of master mix was added to each well.
1×PARP buffer with DTT was prepared. 10×PARP assay buffer was diluted to 1×PARP assay buffer containing DTT by adding 1 volume of 10×PARP assay buffer+1 volume of 10 mM DTT+8 volumes of water. The concentration of DTT in the 1×PARP assay buffer was 1 mM.
5 μL of a test inhibitor was added to each well labeled as “Test Inhibitor.” For the “Positive Control,” the PARP inhibitor, XAV939, was used. For the negative control, no inhibitor is added to the assay mix.
The Tankyrase 2 (TNKS2) enzyme on ice was thawed. The tube containing the enzyme was spun briefly to recover the full content of the tube. The amount of TNKS2 enzyme required for the assay was calculated and the enzyme was diluted to 0.5 ng/μL with 1×PARP assay buffer with DTT. 16) The final concentration of TNKS2 enzyme in the assay was 2 nM. The reaction was initiated by adding 10 μL of diluted TNKS2 enzyme to each well designated “Positive Control” and “Test Inhibitor.” To each well designated as “Blank,” 10 μL of 1×PARP assay buffer with DTT was added. The plate was incubated at room temperature for 1 hour. The plate was washed three times with 100 μL of PBST buffer and the plate was tapped onto a clean paper towel.
1) Streptavidin-HRP was diluted 1:50 in Blocking buffer (purchased from BPS Bioscience) 3.50 μL of diluted Streptavidin-RP was added to each well and incubated for 30 minutes at room temperature. The plate was washed three times with 100 μL of PBST buffer and tapped onto a clean paper towel. Just before use, 1 volume of ELISA ECL Substrate A and 1 volume of ELISA ECL Substrate B were mixed on ice; and 100 μL was added to each well. Immediately, the plate was read in a luminometer or microtiter-plate reader capable of reading chemiluminescence. The “Blank” value was subtracted from all other values.

[2] = tested on: HEK293 SuperTOPFlash reporter cells, Wnt promoter; assay: HEK CELL Wnt Assay (luciferase reporter); type: cell-based; conditions: for IC50: serial dilutions, with or without 50 ng/mL Wnt3a, 18 h
Method: In order to determine the effect of the compounds of Formula (I) on Wnt inhibition, an in vitro assay using HEK293 SuperTOPFlash reporter cells, with the Wnt promoter driving a luciferase reporter gene, were utilized. 40,000 HEK293 SuperTOPFlash reporter cells were seeded, per well, in a 48 well plate for 24 hours, prior to administration of serial dilutions of the compound of Formula (I) to individual wells. Serial dilutions ranging from […] to 1 nM of the compound of Formula (I) were added with or without 50 ng/mL Wnt3a (Time Biosciences) and allowed to incubate with the reporter cells for 18 hours. Reporter cells with no treatment were used as negative control.

Row | SMILES | IC50 [1] [nM] | IC50 [2] [nM] | solubility remark in HEK CELL Wnt assay [2]
1 | O=c1[nH]c(-c2ccc3c(c2)COB3O)nc2c1CSCC2 [Compound 3, 2-(1-hydroxy-1,3-dihydrobenzo[c][1,2]oxaborol-5-yl)-7,8-dihydro-3H-thiopyrano [4,3-d]pyrimidin-4 (5H)-one] | 28 | 7500 | –
2 | O=c1[nH]c(-c2ccc(-c3ccc(B(O)O)c(O)c3)cc2)nc2c1CSCC2 [Compound 27, (3-hydroxy-4′-(4-oxo-3,5,7,8-tetrahydro-4H-thiopyrano[4,3-d]pyrimidin-2-yl)-[1,1′-biphenyl]-4-yl)boronic acid] | 2 | 36 | –
3 | COC(=O)NCCOC(C)(C)c1ccc(-c2ccc(-c3nc4c(c(=O)[nH]3)CSCC4)cc2)cc1 [Compound 29, methyl (2-((2-(4′-(4-oxo-3,5,7,8-tetrahydro-4H-thiopyrano[4,3-d]pyrimidin-2-yl)-[1,1′-biphenyl]-4-yl)propan-2-yl)oxy)ethyl)carbamate] | 1 | 100 | –
4 | O=c1[nH]c(-c2ccc(-c3nc4c(c(=O)[nH]3)CSCC4)cc2)no1 [Compound 4, 3-(4-(4-oxo-3,5,7,8-tetrahydro-4H-thiopyrano[4,3-d]pyrimidin-2-yl)phenyl)-1,2,4-oxadiazol-5 (4H)-one] | 13 | > 10000 | –
5 | O=c1[nH]c(/C=C/c2ccc(C(F)(F)F)cc2)nc2c1CSCC2 [Compound 6, (E)-2-(4-(trifluoromethyl)styryl)-3,5,7,8-tetrahydro-4H-thiopyrano[4,3-d]pyrimidin-4-one] | 2500 | 2000 | –
6 | COCCOC(C)(C)c1c(F)cc(-c2nc3c(c(=O)[nH]2)CSCC3)cc1F [Compound 16, 2-(3,5-difluoro-4-(2-(2-methoxyethoxy)propan-2-yl)phenyl)-3,5,7,8-tetrahydro-4H-thiopyrano[4,3-d]pyrimidin-4-one] | 50 | 400 | –
7 | O=c1[nH]c(-c2cc(F)c(B(O)O)c(F)c2)nc2c1CSCC2 [Compound 14, (2,6-difluoro-4-(4-oxo-3,5,7,8-tetrahydro-4H-thiopyrano[4,3-d]pyrimidin-2-yl)phenyl)boronic acid] | 11 | 8000 | –
8 | O=c1[nH]c(-c2c(F)cc(-c3ccc(B(O)O)cc3)cc2F)nc2c1CSCC2 [Compound 25, (3′,5′-difluoro-4′-(4-oxo-3,5,7,8-tetrahydro-4H-thiopyrano[4,3-d]pyrimidin-2-yl)-[1,1′-biphenyl]-4-yl)boronic acid] | 63 | 2500 | –
9 | O=c1[nH]c(-c2ccc(-c3ncc(B(O)O)cn3)cc2)nc2c1CSCC2 [Compound 24, (2-(4-(4-oxo-3,5,7,8-tetrahydro-4H-thiopyrano[4,3-d]pyrimidin-2-yl)phenyl)pyrimidin-5-yl)boronic acid] | 3 | 500 | –
10 | O=c1[nH]c(-c2ccc(-c3ccc(B(O)O)cc3)cc2O)nc2c1CSCC2 [Compound 26, (3′-hydroxy-4′-(4-oxo-3,5,7,8-tetrahydro-4H-thiopyrano[4,3-d]pyrimidin-2-yl)-[1,1′-biphenyl]-4-yl)boronic acid] | 24 | 652 | –
11 | O=c1[nH]c(-c2ccc(-c3ccc(Br)nc3)nc2)nc2c1CSCC2 [Compound 19, 2-(6′-bromo-[2,3′-bipyridin]-5-yl)-3,5,7,8-tetrahydro-4H-thiopyrano[4,3-d]pyrimidin-4-one] | 40 | 2500 | –
12 | CC(C)(OCCO)c1ccc(-c2ccc(-c3nc4c(c(=O)[nH]3)CSCC4)cc2)cc1 [Compound 12, 2-(4′-(2-(2-hydroxyethoxy)propan-2-yl)-[1,1′-biphenyl]-4-yl)-3,5,7,8-tetrahydro-4H-thiopyrano[4,3-d]pyrimidin-4-one] | 6.5 | 3 | –
13 | O=c1[nH]c(-c2cc(F)c(-c3ccc(Br)nc3)c(F)c2)nc2c1CSCC2 [Compound 21, 2-(4-(6-bromopyridin-3-yl)-3,5-difluorophenyl)-3,5,7,8-tetrahydro-4H-thiopyrano[4,3-d]pyrimidin-4-one] | 12 | 2000 | –
14 | O=c1[nH]c(-c2ccc(-c3cnc(OCCO)nc3)cc2)nc2c1CSCC2 [Compound 11, 2-(4-(2-(2-hydroxyethoxy)pyrimidin-5-yl)phenyl)-3,5,7,8-tetrahydro-4H-thiopyrano[4,3-d]pyrimidin-4-one] | 21 | 100 | solubility issue
15 | [2H]C1([2H])CSCc2c1nc(-c1ccc(C(F)(F)F)cc1)[nH]c2=O [Compound 13, 2-(4-(trifluoromethyl)phenyl)-3,5,7,8-tetrahydro-4H-thiopyrano[4,3-d]pyrimidin-4-one-8,8-d2] | – | 4 | –
16 | COCCOC(C)(C)c1ccc(-c2nc3c(c(=O)[nH]2)CSCC3)cc1 [Compound 17, 2-(4-(2-(2-methoxyethoxy)propan-2-yl)phenyl)-3,5,7,8-tetrahydro-4H-thiopyrano[4,3-d]pyrimidin-4-one] | 3 | 60 | –
17 | O=c1[nH]c(-c2ccc(-c3ccc(B(O)O)cc3O)cc2)nc2c1CSCC2 [Compound 28, (2-hydroxy-4′-(4-oxo-3,5,7,8-tetrahydro-4H-thiopyrano[4,3-d]pyrimidin-2-yl)-[1,1′-biphenyl]-4-yl)boronic acid] | 2 | 2 | –
18 | O=c1[nH]c(-c2ccc(-c3ccc(B(O)O)cn3)cc2)nc2c1CSCC2 [Compound 22, (6-(4-(4-oxo-3,5,7,8-tetrahydro-4H-thiopyrano[4,3-d]pyrimidin-2-yl)phenyl)pyridin-3-yl)boronic acid] | 4 | 250 | –
19 | N#Cc1ccc(-c2nc3c(c(=O)[nH]2)CSCC3)cc1 [Compound 43, 4-(4-oxo-3,5,7,8-tetrahydro-4H-thiopyrano[4,3-d]pyrimidin-2-yl)benzonitrile] | – | 1000 | –
